{"source": "paper PMC7970304", "about": "“The Effects of Apelin and Elabela Ligands on Apelin Receptor Distinct Signaling Profiles” (Frontiers in Pharmacology, 2021)", "format_in_all_cases": "cell-based", "key": {"APJ–GRK5 interaction": {"test_system": "APJ–GRK5 interaction", "experiment": "BRET recruitment of GRK5 to APJ", "conditions": "for log (τ/KA) / Δlog (τ/KA): GRK5; for log (τ/KA): Black–Leff operational model; for Δlog (τ/KA): relative to Apelin-13; for Bias factor / Log (Bias): GRK5 over Ca2+, reference Apelin-13; for Log (Bias): footnote a = statistically insignificant", "protocol": "(§1) To detect the potencies of different peptide ligands for APJ in living cells, real-time kinetic bioluminescence resonance energy transfer (BRET) assays were carried out as follows. HEK293 cells were grown to 80–90% confluence in 24-well plates and transiently transfected with various Rluc-, EYFP-, or Venus-tagged constructs ([Chen et al., 2014]; [Liu et al., 2016]). Approximately 36 h after transfection, the long-acting luciferase substrate EnduRen (E6481, Promega, Beijing Biotech Co., Ltd.) was added to each well at a final concentration of 60 μM and cells were incubated for 2 h at 37°C in a 5% CO2 incubator. BRET experiments were carried out using a Mithras LB941 plate reader (Berthold Technologies, Bad Wildbad, Germany) with three filters: a Rluc filter (400–475 nm), a Venus filter (515–575 nm) and an EGFP filter (500–550 nm) ([Liu et al., 2016]; [Ji et al., 2017]). The BRET ratio was calculated as the ratio of the emission at 535 ± 30 nm to that at 485 ± 20 nm. The results are expressed as the mBRET (mBRET = 1,000 × BRET ratio) ([Pfleger et al., 2006a]; [Pfleger et al., 2006b]). We use high glucose as a negative control group.\n(§2) HEK293 cells were transiently co-transfected with the designated Rluc and GFP2 or Venus or EYFP-labeled constructs. Twenty-four hours after transfection, the cells were harvested in phenol red free medium containing 5% FCS in HEPES buffer and seeded in 96 well white microplate coated with poly-D-lysine. After 24 h, cells were washed twice in PBS and re-suspended in PBS containing 0.5 mM MgCl2 and 0.1% glucose. Coelenterazine h substrate was added at a final concentration of 5 μM in the total volume of 50 μL/well. Kinetic-response and dose-response curve of the recruitment of GRKs or β-arrestin 1 and β-arrestin 2 or AP2 to the APJ by six peptides measured by BRET. […] The BRET signals between receptor and GRKs/β-arrestin1 and 2/AP2 were recorded at 10 min (GRK2/5) or 15 min (β-arrestin1 and) or 30 min (AP2) after agonist stimulation. We use high glucose as a control group. BRET assays were performed as described previously ([Xue et al., 2018]). […] This signal is defined as the ligand induced BRET ratio.\n(§3) The concentration-response data for the ligands in various assays were analyzed to determine the biases of the ligands for G protein dependent signaling or β-arrestin dependent signaling, according to a previously published method ([Kenakin et al., 2012]; [Hager et al., 2016]; [Hothersall et al., 2017]). Briefly, the concentration-response data for each ligand were fitted to the Black–Leff operation model to obtain the values of τ and K A, using the following equation: Response=[A]^nτ^nEm/[A]^nτ^n+([A]KA)^n where [A] is the concentration of the agonist, E m is the maximal response of the system, n is the transducer slope, and K A and τ describe the affinity and efficacy of the agonist, respectively. In the data fitting, the reparametrized form of the equation proposed by [Kenakin et al. (2012)] was used: Response=Em/1+exp{nln[1+exp(β1)/[A]]−nβ2} where β 1 and β 2 are the natural logarithm of K A and τ, respectively, and E m was set to 1. Thus, for each concentration-response curve, a non-linear regression was performed to fit the above equation to give β 1 and β 2 (as well as n). Log (τ/K A) values (“transduction coefficients”) for each ligand vs. each pathway were obtained. […] The ΔΔlog (τ/K A), or Log (Bias), which is the logarithm of the bias factor for a given pathway over a reference pathway (here, intracellular calcium release), was calculated for each ligand as Δlog (τ/K A)–Δlog (τ/K A)Calcium. The 95% confidence interval (CI) was expressed as the mean ± standard error; Log (Bias) values, whose 95% CI crosses 0, were considered statistically insignificant.\n(§4) The data were analyzed using GraphPad Prism v5.0. All the data are presented as the mean ± SEM."}, "[1]": {"test_system": "APJ (Apelin receptor); ERK1/2 phosphorylation", "experiment": "ERK1/2 activation assay, Western blot", "conditions": "for Bias factor / Log (Bias): WB-ERK over Ca2+, reference Apelin-13; for Log (Bias): footnote a = statistically insignificant; for log (τ/KA) / Δlog (τ/KA): WB-ERK; for log (τ/KA): Black–Leff operational model; for Δlog (τ/KA): relative to Apelin-13", "protocol": "HEK293 cells expressing APJ were spilt into 6-well plates at a density of 10^5 cells per well and cultured until reaching approximately 90% confluence. The cells were treated with different concentrations of peptide ligands (0.01–1,000 nM). The cells were washed twice with Phosphate-buffered saline (PBS) and lyzed in RIPA lysis buffer (50 mm Tris–HCl, pH 7.41, 50 mM NaCl, 1 mM EDTA, 10 mM MgCl2, 1 mM DTT, 1 mM PMSF, 1 μg/ml […], […]), 1.4 μg/ml […] and 0.5% (v/v) NP-40). After centrifugation at 14,000 rpm at 4°C for 30 min, the supernatant was collected and separated by 10% SDS-PAGE. Gel transfer takes about 60 min at 250 mA. The nitrocellulose membrane was sealed with 5% skim milk dissolved in 0.1% Triton X-100 of PBS. The primary ERK1/2 antibody was diluted with 5% bovine serum albumin (BSA) at 1:2,000, and the second antibody was diluted with 1:5,000. The ECL reagent was applied to the membrane. The films were scanned by Vanoscan Lide 700F scanner and analyzed by scion image software. The dose-response curve was fitted using the data detected at 5 min after stimulation.\nas §3\nThe data were analyzed using GraphPad Prism v5.0. All the data are presented as the mean ± SEM. Differences between groups were compared by one-way analysis of variants (ANOVA), followed by post-hoc tests (Tukey’s test), When p < 0.05, the difference was considered significant. All experiments were repeated at least four times. The dose-response curves were generated using non-linear fitting model log (agonist) vs. response (three-parameters), with Hill Slope held to 1, i.e., Y = Bottom + (Top-Bottom)/(1 + 10^(LogEC50-X)).\nFIGURE 4 Changes of ERK1/2 phosphorylation in HEK293 cells with stable expression of APJ: (A–F) after 5-min stimulation by the six agonists in different concentrations (0.01–1,000 nM) (G and H) ERK was measured after 5 or 15 min stimulation with six peptides at a concentration of 100 nM. Levels of p-ERK, total ERK were determined by Western blot. The data represent means ± SEM of four independent experiments."}, "[2]": {"test_system": "β-arrestin 2–AP2 interaction induced by APJ", "experiment": "BRET interaction of β-arrestin 2 and β2-adaptin (AP2) induced by APJ", "conditions": "for log (τ/KA) / Δlog (τ/KA): APJ-β-arrestin2-AP2; for log (τ/KA): Black–Leff operational model; for Δlog (τ/KA): relative to Apelin-13; for Bias factor / Log (Bias): APJ-β-arrestin2-AP2 over Ca2+, reference Apelin-13; for Log (Bias): footnote a = statistically insignificant", "protocol": "as §1, §2, §3, §4"}}, "data": [{"smiles": "CSCC[C@H](NC(=O)[C@@H]1CSSC[C@H](NC(=O)[C@H](CC(N)=O)NC(=O)[C@H](Cc2c[nH]cn2)NC(=O)[C@H](CCCCN)NC(=O)[C@H](CCCNC(=N)N)NC(=O)[C@@H](N)CC(C)C)C(=O)N[C@@H](CC(C)C)C(=O)N[C@@H](CCC(N)=O)C(=O)N[C@@H](CCCNC(=N)N)C(=O)N[C@@H](CCCNC(=N)N)C(=O)N1)C(=O)N1CCC[C@H]1C(=O)N[C@@H](CC(C)C)C(=O)N[C@@H](Cc1c[nH]cn1)C(=O)N[C@@H](CO)C(=O)N[C@@H](CCCNC(=N)N)C(=O)N[C@H](C(=O)N1CCC[C@H]1C(=O)N[C@@H](Cc1ccccc1)C(=O)N1CCC[C@H]1C(=O)O)C(C)C", "note": "[Elabela-21]", "values": [{"measurement": "log (τ/KA)", "setting": "APJ–GRK5 interaction", "value": "−1.9 ± 0.3"}, {"measurement": "Δlog (τ/KA)", "setting": "APJ–GRK5 interaction", "value": "0.5 ± 0.4"}, {"measurement": "Bias factor", "setting": "APJ–GRK5 interaction", "value": 124.1}, {"measurement": "Log (Bias)", "setting": "APJ–GRK5 interaction", "value": "2.1 ± 0.5"}, {"measurement": "ERK1/2 phosphorylation (in words)", "setting": "[1]; 100 nM, 15 min", "value": "significantly higher than the activation of ERK1/2 by the other ligands"}, {"measurement": "bias over calcium release", "setting": "[1]; ERK pathway", "value": 0.1, "unit": "fold"}, {"measurement": "Bias factor", "setting": "[1]", "value": 0.1}, {"measurement": "Log (Bias)", "setting": "[1]", "value": "−1.0 ± 0.3"}, {"measurement": "log (τ/KA)", "setting": "[1]", "value": "−2.5 ± 0.2"}, {"measurement": "Δlog (τ/KA)", "setting": "[1]", "value": "−2.6 ± 0.2"}, {"measurement": "log (τ/KA)", "setting": "[2]", "value": "−2.1 ± 0.4"}, {"measurement": "Δlog (τ/KA)", "setting": "[2]", "value": "−1.9 ± 0.5"}, {"measurement": "Bias factor", "setting": "[2]", "value": 0.5}, {"measurement": "Log (Bias)", "setting": "[2]", "value": "−0.3 ± 0.6 ^a"}]}, {"smiles": "CSCC[C@H](NC(=O)[C@@H](NC(=O)[C@H](CC(C)C)NC(=O)[C@H](CC(N)=O)NC(=O)[C@@H](NC(=O)[C@@H]1CCCN1C(=O)[C@H](CCCNC(=N)N)NC(=O)[C@@H](N)CCC(N)=O)C(C)C)[C@@H](C)O)C(=O)N[C@@H](CCCNC(=N)N)C(=O)N[C@@H](CCCNC(=N)N)C(=O)N[C@@H](CCCCN)C(=O)N[C@@H](CC(C)C)C(=O)N[C@@H](CCCNC(=N)N)C(=O)N[C@@H](CCCCN)C(=O)N[C@@H](Cc1c[nH]cn1)C(=O)N[C@@H](CC(N)=O)C(=O)N[C@H]1CSSC[C@@H](C(=O)N[C@@H](CCSC)C(=O)N2CCC[C@H]2C(=O)N[C@@H](CC(C)C)C(=O)N[C@@H](Cc2c[nH]cn2)C(=O)N[C@@H](CO)C(=O)N[C@@H](CCCNC(=N)N)C(=O)N[C@H](C(=O)N2CCC[C@H]2C(=O)N[C@@H](Cc2ccccc2)C(=O)N2CCC[C@H]2C(=O)O)C(C)C)NC(=O)[C@H](CCCNC(=N)N)NC(=O)[C@H](CCCNC(=N)N)NC(=O)[C@H](CCC(N)=O)NC(=O)[C@H](CC(C)C)NC1=O", "note": "[Elabela-32]", "values": [{"measurement": "bias over calcium release", "setting": "APJ–GRK5 interaction; APJ–GRK5", "value": "> 6,000 fold"}, {"measurement": "log (τ/KA)", "setting": "APJ–GRK5 interaction", "value": "−0.3 ± 0.3"}, {"measurement": "Δlog (τ/KA)", "setting": "APJ–GRK5 interaction", "value": "2.1 ± 0.4"}, {"measurement": "Bias factor", "setting": "APJ–GRK5 interaction", "value": "8,921.8"}, {"measurement": "Log (Bias)", "setting": "APJ–GRK5 interaction", "value": 4.0}, {"measurement": "Log (Bias)", "setting": "APJ–GRK5 interaction; listed as ELA-32", "value": "4.0 ± 0.5"}, {"measurement": "Bias factor", "setting": "[1]", "value": 3.0}, {"measurement": "Log (Bias)", "setting": "[1]", "value": "0.5 ± 0.3"}, {"measurement": "log (τ/KA)", "setting": "[1]", "value": "−1.3 ± 0.2"}, {"measurement": "Δlog (τ/KA)", "setting": "[1]", "value": "−1.4 ± 0.2"}, {"measurement": "log (τ/KA)", "setting": "[2]", "value": "−2.0 ± 0.4"}, {"measurement": "Δlog (τ/KA)", "setting": "[2]", "value": "−1.8 ± 0.5"}, {"measurement": "Bias factor", "setting": "[2]", "value": 1.1}, {"measurement": "Log (Bias)", "setting": "[2]", "value": "0.0 ± 0.6 ^a"}]}]}
